target: Human eIF4E (aa 28-217) / biotin labeled 4G2 peptide (Homo sapiens (Human), UniProt P06730); test: Human eIF4E/4G2 binding assay (TR-FRET); conditions: Human eIF4E/4G2 TR-FRET binding assay; head says IC50, legend says EC50
Summary of the method: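 Refolded His-tagged human eIF4E (aa 28-217), 82.5 nM working stock, preincubated 4 h at RT with compounds (10-point 2-fold series) in NaPi pH 6.5 buffer with DTT and gamma globulin. Biotin-4G2 peptide then added for 20 min, followed by Eu-streptavidin/APC-anti-His for 20 min; TR-FRET 665/615 nm ratio normalized, IC50 fitted.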

Human eIF4E (aa 28-217) / biotin labeled 4G2 peptide, sequence (P06730 28-217): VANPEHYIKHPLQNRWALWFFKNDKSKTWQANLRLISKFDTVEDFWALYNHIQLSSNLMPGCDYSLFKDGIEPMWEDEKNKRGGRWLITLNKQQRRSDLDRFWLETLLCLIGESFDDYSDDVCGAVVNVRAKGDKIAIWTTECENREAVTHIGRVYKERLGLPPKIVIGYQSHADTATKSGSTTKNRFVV

Structure (SMILES) | IC50 [µM]
COc1cccc(-c2nc(NCC(Cc3cccc4cc[nH]c34)C(=O)O)sc2C(C)C)c1 (stereo not drawn) [I-34] | 1 to 10
CC(C)c1sc(Nc2ncc(-c3cccc(F)c3)cc2C(=O)O)nc1-c1ccc(Cl)c(Cl)c1 [I-266] | ≤ 1
Cn1nnnc1-c1sc(Nc2ncccc2C(=O)O)nc1-c1ccc(Cl)c(Cl)c1 [I-257, 2-(4-(3,4-dichlorophenyl)-5-(1-methyl-1H-tetrazol-5-yl)thiazol-2-ylamino)nicotinic acid] | ≤ 1
CC(C)Cc1sc(N(CCCCCC(N)=O)CCC(=O)O)nc1-c1ccc(Cl)c(Cl)c1 [I-149] | > 10
CC(C)Cc1sc(N2CCN(C)C(C(=O)O)C2)nc1-c1ccc(Cl)c(Cl)c1 (stereo not drawn) [I-86] | > 10
CC(C)c1sc(NCC(Cc2cccc(O)c2)C(=O)O)nc1-c1ccc(Cl)cc1 (stereo not drawn) [I-41] | 1 to 10
CC(C)Cc1sc(N(CCC(=O)NS(C)(=O)=O)Cc2ccccc2)nc1-c1ccc(Cl)c(Cl)c1 [I-97, 3-(benzyl(4-(3,4-dichlorophenyl)-5-isobutylthiazol-2-yl)amino)-N-(methylsulfonyl)propanamide] | 1 to 10
CC(C)Cc1sc(N(CCC(=O)O)Cc2c[nH]c3ccccc23)nc1-c1ccc(Cl)c(Cl)c1 [I-54] | 1 to 10
CC(C)Cc1sc(N(CCS(=O)(=O)NC(=O)CN)Cc2ccccc2)nc1-c1ccc(Cl)c(Cl)c1 [I-187, 2-amino-N-(2-(benzyl(4-(3,4-dichlorophenyl)-5-isobutylthiazol-2-yl)amino)ethylsulfonyl)acetamide] | > 10
COc1cccc(-c2nc(NCC(CCc3ccccc3)C(=O)O)sc2C(C)C)c1 (stereo not drawn) [I-33] | 1 to 10
CC(C)Cc1sc(N(CCC(=O)NCC(=O)O)Cc2ccccc2)nc1-c1ccc(Cl)c(Cl)c1 [I-196] | 1 to 10
CC(C)Cc1sc(N(CC(=N)N)Cc2ccccc2)nc1-c1ccc(Cl)c(Cl)c1 [I-231, 2-(benzyl(4-(3,4-dichlorophenyl)-5-isobutylthiazol-2-yl)amino)acetimidamide] | > 10
CCOC(=O)c1sc(NCC(Cc2ccccc2)C(=O)O)nc1-c1ccc(Cl)c(Cl)c1 (stereo not drawn) [I-182, 2-benzyl-3-(4-(3,4-dichlorophenyl)-5-(ethoxycarbonyl)thiazol-2-ylamino)propanoic acid] | 1 to 10
CC(C)c1sc(NCC(Cc2c[nH]c3ccccc23)C(=O)O)nc1-c1ccc(Cl)c(Cl)c1 (stereo not drawn) [I-9] | 1 to 10
CC(C)Cc1sc(N(CCC(=O)O)Cc2ccccc2)nc1-c1ccc(Oc2ccccc2)c(Cl)c1 [I-103] | ≤ 1
CC(C)Cc1sc(N2CCN(C(=O)CCN)C(C(=O)O)C2)nc1-c1ccc(Cl)c(Cl)c1 (stereo not drawn) [I-199, 1-(3-aminopropanoyl)-4-(4-(3,4-dichlorophenyl)-5-isobutylthiazol-2-yl)piperazine-2-carboxylic acid] | > 10
CC(C)Cc1sc(N(CCC(=O)O)Cc2ccccc2)nc1-c1cccnc1 [I-83] | > 10
CC(C)Cc1sc(N2CCN(C(=O)c3cccnc3)C(C(=O)O)C2)nc1-c1ccc(Cl)c(Cl)c1 (stereo not drawn) [I-250] | 1 to 10
CC(C)c1sc(Nc2ncc(C(F)(F)F)cc2C(=O)O)nc1-c1ccc(Cl)cc1Cl [I-323, 2-(4-(2,4-dichlorophenyl)-5-isopropylthiazol-2-ylamino)-5-(trifluoromethyl)nicotinic acid] | ≤ 1

Structure (SMILES) | IC50 [µM]
CC(C)c1sc(Nc2ncccc2C(=N)N)nc1-c1ccc(Cl)c(Cl)c1 [I-284, 2-(4-(3,4-dichlorophenyl)-5-isopropylthiazol-2-ylamino)nicotinimidamide] | > 10
CC(C)Cc1sc(N(CCC(=O)O)Cc2ccccc2)nc1-c1ccc(O)cc1 [I-117] | 1 to 10
CC(C)Cc1sc(N(CCC(=O)NCc2ncc[nH]2)Cc2ccccc2)nc1-c1ccc(Cl)c(Cl)c1 [I-195] | > 10
CC(C)Cc1sc(N2CCN(C(=O)c3ncccn3)C(C(=O)O)C2)nc1-c1ccc(Cl)c(Cl)c1 (stereo not drawn) [I-249] | 1 to 10
CC(C)c1sc(NCC(Cc2ccc3[nH]ccc3c2)C(=O)O)nc1-c1ccc(Cl)c(Cl)c1 (stereo not drawn) [I-10] | 1 to 10
CC(C)Cc1sc(N2CCN(c3ccccc3)C(C(=O)O)C2)nc1-c1ccc(Cl)c(Cl)c1 (stereo not drawn) [I-170] | 1 to 10
COCCN(CCC(=O)O)c1nc(-c2ccc(Cl)c(Cl)c2)c(CC(C)C)s1 [I-67] | 1 to 10
CC(C)c1sc(NCC(Cc2c[nH]c3ccccc23)C(=O)O)nc1-c1ccc(Cl)cc1 (stereo not drawn) [I-45] | 1 to 10
CC(C)c1sc(Nc2ncccc2C(=O)O)nc1-c1ccc(Cl)c(C(F)(F)F)c1 [I-261] | ≤ 1
CC(C)Cc1sc(N(CCC(=O)O)Cc2ccccc2)nc1-c1cccc(F)c1 [I-82] | 1 to 10
O=C(O)CCN(Cc1ccccc1)c1nc(-c2ccc(Cl)c(Cl)c2)c(C2CC2)s1 [I-56] | 1 to 10
COc1cccc(-c2nc(NCC(Cc3cccc(O)c3)C(=O)O)sc2C(C)C)c1 (stereo not drawn) [I-31] | > 10
CC(C)c1sc(NCC(Cc2cccc(F)c2)C(=O)O)nc1-c1ccc(Cl)cc1 (stereo not drawn) [I-42] | 1 to 10
COc1cccc(-c2nc(NCC(Cc3cccc4c3OCO4)C(=O)O)sc2C(C)C)c1 (stereo not drawn) [I-29] | 1 to 10
CC(C)Cc1sc(N(CCC(=O)O)Cc2cccc3c2OCO3)nc1-c1ccc(Cl)c(Cl)c1 [I-48] | ≤ 1
CC(C)Cc1sc(N(CCC(=O)O)Cc2cccnc2)nc1-c1ccc(Cl)c(Cl)c1 [I-62] | 1 to 10
CC(C)Cc1sc(N(CCC(=O)O)CCc2ccccc2)nc1-c1ccc(Cl)c(Cl)c1 [I-52] | ≤ 1
COc1ccccc1CC(CNc1nc(-c2ccc(Cl)c(Cl)c2)c(C(C)C)s1)C(=O)O (stereo not drawn) [I-3] | ≤ 1

Other lines, results leading:

IC50 [µM] | Structure (SMILES)
≤ 1 | CC(C)Cc1sc(N(CCC(=O)O)Cc2cccc(F)c2)nc1-c1ccc(Cl)c(Cl)c1 [I-51]
≤ 1 | CSc1ccc(CC(CNc2nc(-c3ccc(Cl)c(Cl)c3)c(CC(C)C)s2)C(=O)O)cc1 (stereo not drawn) [I-174]
1 to 10 | CC(C)Cc1sc(NCC(Cc2ccccn2)C(=O)O)nc1-c1ccc(Cl)c(Cl)c1 (stereo not drawn) [I-158]
1 to 10 | CC(C)Cc1sc(N(CCC(=O)O)Cc2ccncc2)nc1-c1ccc(Cl)c(Cl)c1 [I-63]
1 to 10 | CC(C)Cc1sc(Nc2cncc(C(=O)O)c2)nc1-c1ccc(Cl)c(Cl)c1 [I-221, 5-(4-(3,4-dichlorophenyl)-5-isobutylthiazol-2-ylamino)nicotinic acid]
≤ 1 | CC(C)Cc1sc(Nc2ncc(-c3cccs3)cc2C(=O)O)nc1-c1ccc(OCC(N)=O)c(Cl)c1 [I-329, 2-(4-(4-(2-amino-2-oxoethoxy)-3-chlorophenyl)-5-isobutylthiazol-2-ylamino)-5-(thiophen-2-yl)nicotinic acid]
≤ 1 | CC(C)Cc1sc(N(CCC(=O)O)Cc2ccccc2Cl)nc1-c1ccc(Cl)c(Cl)c1 [I-108]
1 to 10 | CC(C)Cc1sc(Nc2cccc(C(=O)O)n2)nc1-c1ccc(Cl)c(Cl)c1 [I-219]
1 to 10 | CC(C)Cc1sc(-c2cc(C(=O)O)c(F)cn2)nc1-c1ccc(Cl)c(Cl)c1 [I-240]
≤ 1 | CC(C)Cc1sc(Nc2ccc(F)c(C(=O)O)c2)nc1-c1ccc(Cl)c(Cl)c1 [I-209]
1 to 10 | Cc1cc(CC(CNc2nc(-c3ccc(Cl)c(Cl)c3)c(CC(C)C)s2)C(=O)O)cc(C)n1 (stereo not drawn) [I-150]
1 to 10 | CC(C)Cc1sc(-c2cc(C(=O)O)ccn2)nc1-c1ccc(Cl)c(Cl)c1 [I-238]
> 10 | COC(=O)c1ccc(Nc2nc(-c3ccc(Cl)c(Cl)c3)c(CC(C)C)s2)o1 [I-288]
≤ 1 | CC(C)Cc1sc(Nc2ccc(-c3ccccc3)cc2C(=O)O)nc1-c1ccc(Cl)c(Cl)c1 [I-235]
1 to 10 | CC(C)Cc1sc(Nc2cc(C(=O)O)ccn2)nc1-c1ccc(Cl)c(Cl)c1 [I-222]
> 10 | COC(=O)c1ccc(Nc2nc(-c3ccc(Cl)c(Cl)c3)c(CC(C)C)s2)n1C [I-287]

IC50 [µM] | Structure (SMILES)
1 to 10 | CC(C)Cc1sc(Nc2ccc(O)c(C(=O)O)c2)nc1-c1ccc(Cl)c(Cl)c1 [I-207, 5-(4-(3,4-dichlorophenyl)-5-isobutylthiazol-2-ylamino)-2-hydroxybenzoic acid]
≤ 1 | COc1ccccc1CC(CNc1nc(-c2ccc(Cl)c(Cl)c2)c(CC(C)C)s1)C(=O)O (stereo not drawn) [I-20]
1 to 10 | Cc1ncccc1CC(CNc1nc(-c2ccc(Cl)c(Cl)c2)c(CC(C)C)s1)C(=O)O (stereo not drawn) [I-156]
> 10 | CC(C)Cc1sc(N(Cc2ccccc2)C(=O)CC(=O)O)nc1-c1ccc(Cl)c(Cl)c1 [I-143, 3-(benzyl(4-(3,4-dichlorophenyl)-5-isobutylthiazol-2-yl)amino)-3-oxopropanoic acid]
1 to 10 | CC(C)Cc1sc(NCC(Cc2cccnc2)C(=O)O)nc1-c1ccc(Cl)c(Cl)c1 (stereo not drawn) [I-155]
≤ 1 | CC(C)Cc1sc(N(CCC(=O)O)CCc2cccc(Cl)c2)nc1-c1ccc(Cl)c(Cl)c1 [I-94]
≤ 1 | CC(C)c1sc(Nc2ncc(-c3ccccn3)cc2C(=O)O)nc1-c1ccc(Cl)c(Cl)c1 [I-282, 6′-(4-(3,4-dichlorophenyl)-5-isopropylthiazol-2-ylamino)-2,3′-bipyridine-5′-carboxylic acid]
1 to 10 | CC(C)Cc1sc(N(CCC(=O)O)Cc2ccc(O)cc2)nc1-c1ccc(Cl)c(Cl)c1 [I-73]
≤ 1 | CC(C)Cc1sc(NCC(Cc2cccc3c2OCO3)C(=O)O)nc1-c1ccc(Cl)c(Cl)c1 (stereo not drawn) [I-19]
≤ 1 | CC(C)Cc1sc(Nc2cc(-c3cccc(Cl)c3)sc2C(=O)O)nc1-c1ccc(Cl)c(Cl)c1 [I-272]
1 to 10 | COc1cc(CC(CNc2nc(-c3ccc(Cl)c(Cl)c3)c(CC(C)C)s2)C(=O)O)ccn1 (stereo not drawn) [I-165]
1 to 10 | CC(C)Cc1sc(NCC(Cc2ccc(S(C)(=O)=O)cc2)C(=O)O)nc1-c1ccc(Cl)c(Cl)c1 (stereo not drawn) [I-175]
≤ 1 | CC(C)c1sc(Nc2ncc(C3CC3)cc2C(=O)O)nc1-c1ccc(Cl)c(Cl)c1 [I-283]
≤ 1 | CC(C)Cc1sc(Nc2nccc(-c3ccccc3)c2C(=O)O)nc1-c1ccc(Cl)c(Cl)c1 [I-241]
≤ 1 | CC(C)c1sc(Nc2c(C(=O)O)sc3ccccc23)nc1-c1ccc(Cl)c(Cl)c1 [I-280]
> 10 | CC(C)Cc1sc(Nc2ccccc2C#N)nc1-c1ccc(Cl)c(Cl)c1 [I-286]

— patent publication US11753403B2, “EIF4E inhibitors and uses thereof” (PIC Therapeutics, Inc., priority 2020, dated 2023)
